For 6 molecules, IC50 and EC50 results are on record in patent US20250129069A1, “TRIAZOLO WRN INHIBITORS” (Nimbus Wadjet, Inc., priority 2023, published 2025).

The target in assay [1] is human Werner helicase (WRN, amino acids 517-1235 with L1074F point mutation) (Homo sapiens (Human), UniProt Q14191, L1074F). The assay can be described thus: WRN (BV08) ADP-Glo assay. The assay is classed as biochemical. To be noted: human WRN (aa 517-1235, L1074F), read-out: ADP-Glo_hWRN_IC50. The method in brief:
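Untagged WRN 517-1235 (L1074F), Sf9/baculovirus-expressed, 0.15 nM, preincubated 15 min with compound, then 5 μM ATP and 0.1 nM annealed DNA duplex added; 60 min at 25 °C in Bicine pH 7.5, 1 mM MgCl2, 1% DMSO. ADP-Glo luminescence; % inhibition vs DMSO and 20 μM NSC-617145 controls, four-parameter IC50 fit.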
On the technique in general: ADP-Glo turns the ADP formed in a reaction into a luminescent signal.

The subject of assay [2] is p21 induction in HCT 116 cells. The assay can be described thus: p21 induction in cells (In-Cell Western, p21/GAPDH ratio). The assay is classed as cell-based. The settings on record: Homo sapiens, 24 h compound incubation, read-out: p21_EC50. The method in brief:
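HCT 116 cells treated 24 h at 37° C with 11-point, 2-fold dilutions typically from 10 μM, in duplicate. Fixed cells co-stained for p21 (800 nm) and GAPDH (700 nm) by In-Cell Western. p21/GAPDH ratio normalised between DMSO and reference WRN inhibitor controls, and EC50 obtained by nonlinear regression.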

Chain of human Werner helicase (WRN, amino acids 517-1235 with L1074F point mutation) (Q14191 other isoform, or with tags, fused parts or gaps L1074F (already in the parent)): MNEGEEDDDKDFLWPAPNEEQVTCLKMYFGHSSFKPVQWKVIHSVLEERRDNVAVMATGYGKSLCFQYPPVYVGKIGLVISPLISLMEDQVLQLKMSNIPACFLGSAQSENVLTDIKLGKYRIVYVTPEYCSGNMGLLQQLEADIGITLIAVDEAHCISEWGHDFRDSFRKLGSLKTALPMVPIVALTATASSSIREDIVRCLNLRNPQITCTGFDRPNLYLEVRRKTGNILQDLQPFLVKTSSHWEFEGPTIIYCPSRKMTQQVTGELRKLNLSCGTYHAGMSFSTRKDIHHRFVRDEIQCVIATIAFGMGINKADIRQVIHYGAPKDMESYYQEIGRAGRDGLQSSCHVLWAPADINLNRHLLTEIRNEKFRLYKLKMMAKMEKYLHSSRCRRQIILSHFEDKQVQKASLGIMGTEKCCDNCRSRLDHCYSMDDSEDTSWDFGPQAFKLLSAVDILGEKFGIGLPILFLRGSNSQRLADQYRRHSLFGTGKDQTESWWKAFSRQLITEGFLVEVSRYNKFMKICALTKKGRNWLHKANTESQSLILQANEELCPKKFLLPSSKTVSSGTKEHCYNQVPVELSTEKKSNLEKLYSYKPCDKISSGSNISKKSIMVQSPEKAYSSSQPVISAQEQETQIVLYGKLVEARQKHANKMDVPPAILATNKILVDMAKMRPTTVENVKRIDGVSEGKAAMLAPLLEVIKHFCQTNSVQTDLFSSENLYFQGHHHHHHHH

`CCc1c(N2CCN(C(=O)c3c(OC)ncc(C)c3O)[C@H]3CC[C@@H]32)c(=O)c2nn(-c3ccnc(OC)c3)nc2n1CC(=O)NC1CC2(CCC2)C1` [Compound I-93, 2-{5-ethyl-6-[(1S,6S)-5-(4-hydroxy-2-methoxy-5-methylpyridine-3-carbonyl)-2,5-diazabicyclo[4.2.0]octan-2-yl]-2-(2-methoxypyridin-4-yl)-7-oxo-2H,4H,7H-[1,2,3]triazolo[4,5-b]pyridin-4-yl}-N-{spiro[3.3]heptan-2-yl}acetamide]: the IC50 in assay [1] lay in the range of 5 to 50 nM. The EC50 in assay [2] is ≤ 500 nM.

In the case of `CCc1c(N2CCN(C(=O)c3ncnc(C)c3O)[C@H]3CC[C@@H]32)c(=O)c2nn(-c3ccnc(OC)c3)nc2n1CC(=O)NC1CC2(CCC2)C1OC` (stereo partly drawn) [Compound I-71, 2-{5-ethyl-6-[(1S,6S)-5-(5-hydroxy-6-methylpyrimidine-4-carbonyl)-2,5-diazabicyclo[4.2.0]octan-2-yl]-2-(2-methoxypyridin-4-yl)-7-oxo-2H,4H,7H-[1,2,3]triazolo[4,5-b]pyridin-4-yl}-N-{1-methoxyspiro[3.3]heptan-2-yl}acetamide], the IC50 in assay [1] lay in the range of 100 to 500 nM. For the same molecule, the EC50 in assay [2] is > 5000 nM.

On to `CCc1c(N2CCN(C(=O)c3ncnc(C)c3O)CC2)c(=O)c2nn(-c3cc(C)n(C)n3)nc2n1CC(=O)Nc1ccc(C(F)(F)F)cc1Cl` [Compound I-113, N-[2-chloro-4-(trifluoromethyl)phenyl]-2-[2-(1,5-dimethyl-1H-pyrazol-3-yl)-5-ethyl-6-[4-(5-hydroxy-6-methylpyrimidine-4-carbonyl)piperazin-1-yl]-7-oxo-2H,4H,7H-[1,2,3]triazolo[4,5-b]pyridin-4-yl]acetamide], for which the IC50 in assay [1] fell in the range of 5 to 50 nM. Further, the EC50 in assay [2] is ≤ 500 nM.

With `CCc1c(N2CCN(C(=O)c3cccc4ncoc34)[C@H]3CC[C@@H]32)c(=O)c2nn(-c3ccnc(OC)c3)nc2n1CC(=O)NC12CC(C(C)C)(C1)C2` [Compound I-108, 2-{6-[(1S,6S)-5-(1,3-benzoxazole-7-carbonyl)-2,5-diazabicyclo[4.2.0]octan-2-yl]-5-ethyl-2-(2-methoxypyridin-4-yl)-7-oxo-2H,4H,7H-[1,2,3]triazolo[4,5-b]pyridin-4-yl}-N-[3-(propan-2-yl)bicyclo[1.1.1]pentan-1-yl]acetamide], the IC50 in assay [1] was in the range of 5 to 50 nM. For the same molecule, the EC50 in assay [2] lay within 500 to 2000 nM.

Turning to `CCc1c(N2CCN(C(=O)c3ncnc(C)c3O)[C@H]3CC[C@@H]32)c(=O)c2nn(C3=CCOCC3)nc2n1CC(=O)Nc1ccc(C(F)(F)F)cc1Cl` [Compound I-20, N-(2-chloro-4-(trifluoromethyl)phenyl)-2-(2-(3,6-dihydro-2H-pyran-4-yl)-5-ethyl-6-((1S,6S)-5-(5-hydroxy-6-methylpyrimidine-4-carbonyl)-2,5-diazabicyclo[4.2.0]octan-2-yl)-7-oxo-2,7-dihydro-4H-[1,2,3]triazolo[4,5-b]pyridin-4-yl)acetamide], the IC50 in assay [1] is ≤ 5 nM. Also, the EC50 in assay [2] is ≤ 500 nM.

For the molecule `CCc1c(N2CCN(C(=O)c3ncnc(C)c3O)[C@@H]3CCC[C@@H]32)c(=O)c2nn(-c3ccnc(OC)c3)nc2n1CC(=O)NC12CC(C(C)C)(C1)C2` (relative stereo) [Compound I-77, rel-2-{6-[(4aR,7aS)-4-(5-hydroxy-6-methylpyrimidine-4-carbonyl)-octahydro-1H-cyclopenta[b]pyrazin-1-yl]-5-ethyl-2-(2-methoxypyridin-4-yl)-7-oxo-2H,4H,7H-[1,2,3]triazolo[4,5-b]pyridin-4-yl}-N-[3-(propan-2-yl)bicyclo[1.1.1]pentan-1-yl]acetamide], in assay [1], the IC50 is > 500 nM. The EC50 in assay [2] is > 5000 nM.
